From ChEMBL document CHEMBL5247586, “Discovery of fusidic acid derivatives as novel STING inhibitors for treatment of sepsis” (Eur J Med Chem, 2022) come the findings set out here.

pIC50: −log10 of the molar value.

Data set [1] is described as follows: Cytotoxicity against mouse RAW264.7 cells assessed as cell viability at 40 uM measured after 24 hrs by MTT assay relative to control. In kind it is toxicity, cell-based. The note with it: read-out: Activity.
Data set [2] deals with RAW264.7. The experiment in a line: Anti inflammatory activity in LPS-induced mouse RAW264.7 cells assessed as inhibition of NO production at 2.5 uM preincubated with compound for 2 hrs followed by LPS stimulation and measured after 24 hrs by griess reagent based assay relative to control. In kind it is functional. Conditions: time 26 hrs.
The subject of data set [3] is RAW264.7. As to the kind of experiment: Anti inflammatory activity in LPS-induced mouse RAW264.7 cells assessed as inhibition of NO production at 5 uM preincubated with compound for 2 hrs followed by LPS stimulation and measured after 24 hrs by griess reagent based assay relative to control. Type of data set: functional. Conditions: time 26 hrs.
The test system of data set [4] is RAW264.7. As to the kind of experiment: Anti inflammatory activity in LPS-induced mouse RAW264.7 cells assessed as inhibition of NO production preincubated with compound for 2 hrs followed by LPS stimulation and measured after 24 hrs by griess reagent based assay. Type of data set: functional, cell-based. For orientation: Nitrite, measured by Griess reagent, commonly stands in for NO production.

Turning to `CC(=O)O[C@H]1C[C@@]2(C)[C@@H](C[C@@H](O)[C@H]3[C@@]4(C)CC[C@@H](OC(=O)CCSSCCC(=O)NOC(C)(C)C)[C@@H](C)[C@@H]4CC[C@@]32C)/C1=C(\CCC=C(C)C)C(=O)OCc1ccccc1`, in data set [1], the viability at 24 h, 40 µM came to 76%.
The term inhibition denotes the share of the control response that was lost under treatment. One may read the pIC50 as −log10 of the IC50, conventionally taken in molar units. As for `C=CCONC(=O)c1ccccc1C(=O)O[C@@H]1CC[C@@]2(C)[C@@H](CC[C@@]3(C)[C@H]2[C@H](O)C[C@H]2/C(=C(\CCC=C(C)C)C(=O)OCc4ccccc4)[C@@H](OC(C)=O)C[C@@]23C)[C@@H]1C`, the inhibition at 2.5 µM in data set [2] worked out at 24.7%. In addition, in data set [3], the inhibition at 5 µM came to 39.3%. For the same compound, in data set [4], the negative logarithm of the IC50 (pIC50) was 5.05. Further, the viability at 24 h, 40 µM in data set [1] is 101%.
As to `CC(=O)O[C@H]1C[C@@]2(C)[C@@H](C[C@@H](O)[C@H]3[C@@]4(C)CC[C@@H](O)[C@@H](C)[C@@H]4CC[C@@]32C)/C1=C(\CCC=C(C)C)C(=O)NOc1ccc([N+](=O)[O-])cc1[N+](=O)[O-]`, in data set [1], the viability at 24 h, 40 µM is 15.2%.
With `CONC(=O)/C(CCC=C(C)C)=C1\[C@@H](OC(C)=O)C[C@@]2(C)[C@H]1C[C@@H](O)[C@H]1[C@@]3(C)CC[C@@H](O)[C@@H](C)[C@@H]3CC[C@@]12C`, in data set [2], the inhibition at 2.5 µM turned out to be 16.5%. Further, the inhibition at 5 µM in data set [3] turned out to be 18.3%. Further, the viability at 24 h, 40 µM in data set [1] was 91.4%.
For `CC(=O)O[C@H]1C[C@@]2(C)[C@@H](C[C@@H](O)[C@H]3[C@@]4(C)CC[C@@H](OC(=O)c5ccccc5C(=O)NOCc5ccccc5)[C@@H](C)[C@@H]4CC[C@@]32C)/C1=C(\CCC=C(C)C)C(=O)OCc1ccccc1`, in data set [2], the inhibition at 2.5 µM was 8.93%. Further, the inhibition at 5 µM in data set [3] worked out at 11%. In data set [1], the viability at 24 h, 40 µM was 96%.
For the compound `CC(=O)O[C@H]1C[C@@]2(C)[C@@H](C[C@@H](O)[C@H]3[C@@]4(C)CC[C@@H](OC(=O)c5ccccc5C(=O)n5cccn5)[C@@H](C)[C@@H]4CC[C@@]32C)/C1=C(\CCC=C(C)C)C(=O)OCc1ccccc1`, in data set [1], the viability at 24 h, 40 µM is 76.6%.
Regarding `CC(=O)O[C@H]1C[C@@]2(C)[C@@H](C[C@@H](O)[C@H]3[C@@]4(C)CC[C@@H](OC(=O)CCSSCCC(=O)N(C)O)[C@@H](C)[C@@H]4CC[C@@]32C)/C1=C(\CCC=C(C)C)C(=O)OCc1ccccc1`, in data set [1], the viability at 24 h, 40 µM worked out at 48.8%.
Take `C=CCONC(=O)/C(CCC=C(C)C)=C1\[C@@H](OC(C)=O)C[C@@]2(C)[C@H]1C[C@@H](O)[C@H]1[C@@]3(C)CC[C@@H](O)[C@@H](C)[C@@H]3CC[C@@]12C`: the inhibition at 2.5 µM in data set [2] is 17.7%. In addition, the inhibition at 5 µM in data set [3] was determined as 21.3%. Further, in data set [1], the viability at 24 h, 40 µM was determined as 90.8%.
For the compound `CC(=O)O[C@H]1C[C@@]2(C)[C@@H](C[C@@H](O)[C@H]3[C@@]4(C)CC[C@@H](O)[C@@H](C)[C@@H]4CC[C@@]32C)/C1=C(\CCC=C(C)C)C(=O)NOCc1ccccc1`, the viability at 24 h, 40 µM in data set [1] is 0.07%.
As to `CC(=O)O[C@H]1C[C@@]2(C)[C@@H](C[C@@H](O)[C@H]3[C@@]4(C)CC[C@@H](OC(=O)CCSSCCC(=O)NOC(=O)c5ccc([N+](=O)[O-])cc5)[C@@H](C)[C@@H]4CC[C@@]32C)/C1=C(\CCC=C(C)C)C(=O)OCc1ccccc1`, the inhibition at 2.5 µM in data set [2] came to 33.3%. Besides, the inhibition at 5 µM in data set [3] worked out at 44.8%. Moreover, the pIC50 in data set [4] was 5.00. Moreover, the viability at 24 h, 40 µM in data set [1] turned out to be 91%.
In the case of `CC(=O)O[C@H]1C[C@@]2(C)[C@@H](C[C@@H](O)[C@H]3[C@@]4(C)CC[C@@H](O)[C@@H](C)[C@@H]4CC[C@@]32C)/C1=C(\CCC=C(C)C)C(=O)O` [FUSIDIC ACID], the inhibition at 2.5 µM in data set [2] worked out at 2.18%. For the same compound, in data set [3], the inhibition at 5 µM stood at 14.9%. For the same compound, the viability at 24 h, 40 µM in data set [1] is 91.3%.
On to `CC(=O)O[C@H]1C[C@@]2(C)[C@@H](C[C@@H](O)[C@H]3[C@@]4(C)CC[C@@H](OC(=O)c5ccccc5C(=O)NOC5CCCCO5)[C@@H](C)[C@@H]4CC[C@@]32C)/C1=C(\CCC=C(C)C)C(=O)OCc1ccccc1` (some centres not stated), for which the inhibition at 2.5 µM in data set [2] amounted to 7.93%. Further, the inhibition at 5 µM in data set [3] was determined as 19.4%. Further, in data set [1], the viability at 24 h, 40 µM was determined as 94.1%.
As to `CC(=O)O[C@H]1C[C@@]2(C)[C@@H](C[C@@H](O)[C@H]3[C@@]4(C)CC[C@@H](OC(=O)c5ccccc5C(=O)N5CCCCC5)[C@@H](C)[C@@H]4CC[C@@]32C)/C1=C(\CCC=C(C)C)C(=O)OCc1ccccc1`, in data set [2], the inhibition at 2.5 µM is 16.9%. Moreover, in data set [3], the inhibition at 5 µM stood at 30.8%. Further, the pIC50 in data set [4] is 4.94. For the same compound, the viability at 24 h, 40 µM in data set [1] came to 103%.
The matching figures for `CC(=O)O[C@H]1C[C@@]2(C)[C@@H](C[C@@H](O)[C@H]3[C@@]4(C)CC[C@@H](OC(=O)CCSSCCC(=O)NOC5CCCCO5)[C@@H](C)[C@@H]4CC[C@@]32C)/C1=C(\CCC=C(C)C)C(=O)OCc1ccccc1` (some centres not stated): 55.2%, 65.2%, 5.58 and 90.2%.
Take `CC(=O)O[C@H]1C[C@@]2(C)[C@@H](C[C@@H](O)[C@H]3[C@@]4(C)CC[C@@H](O)[C@@H](C)[C@@H]4CC[C@@]32C)/C1=C(\CCC=C(C)C)C(=O)NOc1ccc([N+](=O)[O-])cc1`: the viability at 24 h, 40 µM in data set [1] stood at 56.5%.
For the compound `CC(=O)O[C@H]1C[C@@]2(C)[C@@H](C[C@@H](O)[C@H]3[C@@]4(C)CC[C@@H](OC(=O)c5ccccc5C(=O)N5CCN(C)CC5)[C@@H](C)[C@@H]4CC[C@@]32C)/C1=C(\CCC=C(C)C)C(=O)OCc1ccccc1`, the inhibition at 2.5 µM in data set [2] stood at 8.43%. Moreover, the inhibition at 5 µM in data set [3] came to 14.7%. The viability at 24 h, 40 µM in data set [1] is 108%.
In the case of `CC(=O)O[C@H]1C[C@@]2(C)[C@@H](C[C@@H](O)[C@H]3[C@@]4(C)CC[C@@H](OC(=O)c5ccccc5C(=O)n5ccnc5)[C@@H](C)[C@@H]4CC[C@@]32C)/C1=C(\CCC=C(C)C)C(=O)OCc1ccccc1`, the viability at 24 h, 40 µM in data set [1] stood at 59.5%.
Take `CC(=O)O[C@H]1C[C@@]2(C)[C@@H](C[C@@H](O)[C@H]3[C@@]4(C)CC[C@@H](O)[C@@H](C)[C@@H]4CC[C@@]32C)/C1=C(\CCC=C(C)C)C(=O)NOC1CCCCO1` (some centres not stated): in data set [1], the viability at 24 h, 40 µM came to 2.83%.
`CONC(=O)CCSSCCC(=O)O[C@@H]1CC[C@@]2(C)[C@@H](CC[C@@]3(C)[C@H]2[C@H](O)C[C@H]2/C(=C(\CCC=C(C)C)C(=O)OCc4ccccc4)[C@@H](OC(C)=O)C[C@@]23C)[C@@H]1C`: the viability at 24 h, 40 µM in data set [1] came to 2.32%.
Same read-out and setting: the result for `CON(C)C(=O)/C(CCC=C(C)C)=C1\[C@@H](OC(C)=O)C[C@@]2(C)[C@H]1C[C@@H](O)[C@H]1[C@@]3(C)CC[C@@H](O)[C@@H](C)[C@@H]3CC[C@@]12C` reads 55.5%.
Consider `CC(=O)O[C@H]1C[C@@]2(C)[C@@H](C[C@@H](O)[C@H]3[C@@]4(C)CC[C@@H](OC(=O)c5ccccc5C(=O)NOC(C)(C)C)[C@@H](C)[C@@H]4CC[C@@]32C)/C1=C(\CCC=C(C)C)C(=O)OCc1ccccc1`, for which the inhibition at 2.5 µM in data set [2] was determined as 13.5%. In addition, the inhibition at 5 µM in data set [3] stood at 25.9%. Also, the viability at 24 h, 40 µM in data set [1] came out at 98.3%.
As for `CC(=O)O[C@H]1C[C@@]2(C)[C@@H](C[C@@H](O)[C@H]3[C@@]4(C)CC[C@@H](OC(=O)CCSSCCC(=O)NOc5ccc([N+](=O)[O-])cc5)[C@@H](C)[C@@H]4CC[C@@]32C)/C1=C(\CCC=C(C)C)C(=O)OCc1ccccc1`, the inhibition at 2.5 µM in data set [2] turned out to be 14.9%. Moreover, the inhibition at 5 µM in data set [3] was found to be 28.4%. Besides, the viability at 24 h, 40 µM in data set [1] stood at 103%.
As to `CC(=O)O[C@H]1C[C@@]2(C)[C@@H](C[C@@H](O)[C@H]3[C@@]4(C)CC[C@@H](O)[C@@H](C)[C@@H]4CC[C@@]32C)/C1=C(\CCC=C(C)C)C(=O)NOC(=O)c1ccc([N+](=O)[O-])cc1`, in data set [1], the viability at 24 h, 40 µM was 70.8%.
In the case of `CC(=O)O[C@H]1C[C@@]2(C)[C@@H](C[C@@H](O)[C@H]3[C@@]4(C)CC[C@@H](OC(=O)CCSSCCC(=O)N(O)C5CCCCC5)[C@@H](C)[C@@H]4CC[C@@]32C)/C1=C(\CCC=C(C)C)C(=O)OCc1ccccc1`, the viability at 24 h, 40 µM in data set [1] was found to be 80.1%.
For `CONC(=O)c1ccccc1C(=O)O[C@@H]1CC[C@@]2(C)[C@@H](CC[C@@]3(C)[C@H]2[C@H](O)C[C@H]2/C(=C(\CCC=C(C)C)C(=O)OCc4ccccc4)[C@@H](OC(C)=O)C[C@@]23C)[C@@H]1C`, the inhibition at 2.5 µM in data set [2] came out at 17.3%. Besides, in data set [3], the inhibition at 5 µM was found to be 27%. The viability at 24 h, 40 µM in data set [1] is 106%.
Take `O=C(Nc1ccc(I)cc1)c1ccc([N+](=O)[O-])o1`: the pIC50 in data set [4] is 5.94.
On to `CCN1CCN(C(=O)c2ccccc2C(=O)O[C@@H]2CC[C@@]3(C)[C@@H](CC[C@@]4(C)[C@H]3[C@H](O)C[C@H]3/C(=C(\CCC=C(C)C)C(=O)OCc5ccccc5)[C@@H](OC(C)=O)C[C@@]34C)[C@@H]2C)CC1`, for which, in data set [1], the viability at 24 h, 40 µM is 5.62%.
For the compound `CC(=O)O[C@H]1C[C@@]2(C)[C@@H](C[C@@H](O)[C@H]3[C@@]4(C)CC[C@@H](OC(=O)c5ccccc5C(=O)NOc5ccc([N+](=O)[O-])cc5)[C@@H](C)[C@@H]4CC[C@@]32C)/C1=C(\CCC=C(C)C)C(=O)OCc1ccccc1`, the viability at 24 h, 40 µM in data set [1] came out at 1.66%.
For the compound `CC(=O)O[C@H]1C[C@@]2(C)[C@@H](C[C@@H](O)[C@H]3[C@@]4(C)CC[C@@H](O)[C@@H](C)[C@@H]4CC[C@@]32C)/C1=C(\CCC=C(C)C)C(=O)NOC(C)(C)C`, the viability at 24 h, 40 µM in data set [1] is 84.3%.
Consider `CC(=O)O[C@H]1C[C@@]2(C)[C@@H](C[C@@H](O)[C@H]3[C@@]4(C)CC[C@@H](OC(=O)CCSSCCC(=O)NOCc5ccccc5)[C@@H](C)[C@@H]4CC[C@@]32C)/C1=C(\CCC=C(C)C)C(=O)OCc1ccccc1`, for which, in data set [2], the inhibition at 2.5 µM was 8.17%. The inhibition at 5 µM in data set [3] is 12.5%. Further, in data set [1], the viability at 24 h, 40 µM is 98.4%.
